# Laboratory results reported in ChEMBL document CHEMBL1201862, “PubChem BioAssay data set” (2004).
# Calls of active or inactive are those of the source.
# Legend:
# [1] = OVCAR8 cell viability loss – plate reader, dry powder samples, PAX8 project, dose response (AID 743197); assay type: functional, cell-based; details: OVCAR-8
# [2] = toxicity to human hepatoma HepG2 cells – cell-based, cherry-picked samples, cytotoxicity control, dose response (AID 1159577); assay type: functional
# [3] = IGROV1 cell killing – plate reader, dry powder samples, PAX8 inhibitor project, dose response (AID 743043); assay type: functional, cell-based; details: IGROV-1
# [4] = P. falciparum Dd2 growth inhibitors, dose response, SYBR Green, cherry-picked samples (AID 1159567); assay type: functional, cell-based
# [5] = OVCAR-3 cell viability loss – plate reader, dry powder samples, PAX8 inhibitor project, dose response (AID 743044); assay type: functional, cell-based
# [6] = toxicity toward immortalized ovarian surface epithelium – cell-based, plate reader, dry powder samples, cytotoxicity control for PAX8 inhibitor project, dose response (AID 743045); assay type: functional
# [7] = general cell-killing toxicity readout – plate reader, dry powder samples, cytotoxicity control for PAX8 inhibitor project, dose response (AID 743021); assay type: functional, cell-based
# [8] = reduced cellular PGC1a acetyl-lysine signal – cell-based, cherry-picked samples, dose response (AID 720514); assay type: functional;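 further: potency may reflect raised or lowered acetylation signal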
# Paired box protein Pax-8 = Paired box protein Pax-8 (Homo sapiens, UniProt Q06710); assay: PAX8 transcriptional activity inhibition in RMG-I – RMG-I cells, luciferase, cherry-pick, dose response (AID 687027); assay type: functional, cell-based;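 further: luciferase reporter driven by Pax8 target thyroperoxidase promoter measured by SteadyGlo luminescence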
# HEK293 = assay: viability loss in HEK293T cells – cell-based, ATP luminescence, cherry-pick samples, cytotoxicity control, dose response (AID 687005); assay type: functional; details: Homo sapiens;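 further: cells exposed to compound for 48 hours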
# [9] = HEK293 Cytotoxicity Assay Measured in Cell-Based System Using Plate Reader - 7071-01_Inhibitor_Dose_CherryPick_Activity_Set2.; assay type: functional
# HeLa = assay: viability loss in HeLa cells – cell-based, ATP luminescence, cherry-pick samples, cytotoxicity control, dose response (AID 687004); assay type: functional; details: Homo sapiens
# [10] = LMP1-induced NF-kB luciferase signal inhibition – cell-based, EBV LMP1, dry powder, set 2, dose response (AID 624361); assay type: functional
# [11] = TNFa-induced NF-kB reporter signal decrease – HEK293 LMP1 reporter cells, dry powder, set 2, selectivity assay for EBV LMP1 NF-kB inhibitor project, dose response (AID 624369); assay type: functional
# A549 = assay: viability loss in A549 cells – cell-based, plate reader, cherry-pick samples, cytotoxicity control, dose response (AID 687028); assay type: functional; details: Homo sapiens
# [12] = blockers of FN fibrillogenesis by fibroblasts – AH1F cells, Alexa488-FN fluorescence, cherry-picks, dose response (AID 1035475); assay type: functional, cell-based
# [13] = viability loss in HEK293 kidney cells – cell-based, cherry-picks, set 5, cytotoxicity control, dose response (AID 1053117); assay type: functional
# [14] = viability loss in HepG2 hepatoma cells – cell-based, cherry-picks, set 5, cytotoxicity control, dose response (AID 1053118); assay type: functional
# [15] = general mammalian cell viability loss – inhibitor set, cherry-pick, set 2, cytotoxicity control for miR-122 modulator project, dose response (AID 720697); assay type: functional, cell-based
# Protein Wnt-3a = Protein Wnt-3a (Mus musculus, UniProt P27467); assay: SAR analysis of small molecule antagonists of Gli-SUFU in a Wnt3a luminescent reporter assay.; assay type: functional
# Sequence of Protein Wnt-3a (P27467 whole entry): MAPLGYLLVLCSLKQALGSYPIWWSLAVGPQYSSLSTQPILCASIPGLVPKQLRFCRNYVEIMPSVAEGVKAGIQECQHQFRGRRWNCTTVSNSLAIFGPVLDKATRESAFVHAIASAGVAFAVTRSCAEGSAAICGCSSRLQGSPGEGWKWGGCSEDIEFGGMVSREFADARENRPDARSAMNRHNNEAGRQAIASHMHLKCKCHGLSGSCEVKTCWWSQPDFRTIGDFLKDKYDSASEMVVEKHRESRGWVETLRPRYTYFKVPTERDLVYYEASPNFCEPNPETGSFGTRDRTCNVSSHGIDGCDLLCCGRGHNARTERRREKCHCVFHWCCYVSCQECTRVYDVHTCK
# Sequence of Paired box protein Pax-8 (Q06710 whole entry): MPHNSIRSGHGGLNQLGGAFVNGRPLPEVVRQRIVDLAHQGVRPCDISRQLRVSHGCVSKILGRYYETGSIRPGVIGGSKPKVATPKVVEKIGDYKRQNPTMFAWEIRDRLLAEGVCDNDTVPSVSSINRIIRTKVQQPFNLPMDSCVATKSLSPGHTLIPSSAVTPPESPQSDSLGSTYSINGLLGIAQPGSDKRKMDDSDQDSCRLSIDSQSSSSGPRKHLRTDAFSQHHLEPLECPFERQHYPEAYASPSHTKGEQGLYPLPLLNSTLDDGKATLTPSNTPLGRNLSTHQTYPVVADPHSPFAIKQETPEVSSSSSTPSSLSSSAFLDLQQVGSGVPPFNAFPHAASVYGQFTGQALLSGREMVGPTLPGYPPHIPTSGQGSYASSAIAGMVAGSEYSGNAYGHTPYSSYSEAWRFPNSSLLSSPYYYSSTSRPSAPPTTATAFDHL
smiles,measurement,setting,value
Cc1cccc(-c2ccc([C@H]3[C@@H]4CN(C(=O)Nc5ccc(C(F)(F)F)cc5)C[C@H]3N4)cc2)c1,AC50,[1],25.6 µM (active)
same,AC50,[2],9.26 µM (active)
same,AC50,[3],33.2 µM (active)
same,AC50,[4],3.28 µM (active)
same,AC50,[5],18.8 µM (active)
same,AC50,[6],17 µM (active)
same,AC50,[7],22.9 µM (active)
same,AC50,[8],4.51 µM (active)
same,AC50,Paired box protein Pax-8,8.8 µM (active)
C[C@@H]1CN([C@@H](C)CO)S(=O)(=O)c2ccc(-c3ccccc3)cc2O[C@H]1CN(C)C(=O)C1CCCCC1,AC50,HEK293,15.4 µM (active)
same,AC50,[9],15.4 µM (active)
same,AC50,HeLa,> 52 µM (inactive)
Cc1cc(C(=O)Nc2ccc3c(c2)C(=O)N(C)[C@H]2CC[C@H](CC(=O)NCc4ccc(-c5ccccc5)cc4)O[C@H]2CO3)no1,AbsAC35,[10],37.95 µM
same,AbsAC35,[11],62.14 µM
C[C@H](CO)N1C[C@H](C)[C@@H](CN(C)C(=O)Nc2ccc(C(F)(F)F)cc2)OCCCC[C@H](C)Oc2ccc(NC(=O)C3CCCCC3)cc2C1=O,AC50,A549,30.5 µM (active)
CN1c2ccc(-c3ccccc3)cc2[C@H]2[C@H](CCN2C(=O)CN2CCOCC2)[C@@H]1CO,AC50,[12],> 70 µM (inactive)
same,AC50,[13],> 52 µM (inactive)
CO[C@@H]1CN(C)C(=O)c2ccc(NC(=O)c3ccc(-c4ccccc4)cc3)cc2OC[C@@H](C)NC[C@@H]1C,AC50,[2],11.9 µM (active)
same,AC50,[4],3.9 µM (active)
same,AC50,[14],> 52 µM (inactive)
CN(C)C(=O)C[C@@H]1CC[C@@H]2[C@@H](COc3ccc(NC(=O)C4CC4)cc3C(=O)N2C)O1,AC50,[15],9.22 µM (active)
CN(C)c1cc(NC(=O)c2ccccc2F)ncn1,IC50,Protein Wnt-3a,> 21.8 µM (inactive)
